The values that follow come from patent publication US12589156B2, “Benzimidazole and benzimidazolone based protac compounds for the targeted degradation of leucine rich repeat kinase 2 (LRRK2)” (Arvinas Operations, Inc., priority 2023, dated 2026).

This test deals with T1, WT LRRK2 (Homo sapiens, UniProt Q5S007).
T1 construct: endogenous in cells; host or cells: HEK293 (endogenous LRRK2 gene knock-in tagged with HiBit; stably expressing CMV-driven firefly luciferase)
As to the kind of experiment: LRRK2 HiBit degradation assay (Nano-Glo Dual Luciferase) in HEK293 cells with HiBit-tagged endogenous LRRK2. The format is cell-based. The note with it: for Dmax / WT LRRK2 **Dmax (%): maximal degradation. In outline:
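HEK293 cells carrying endogenous C-terminally HiBit-tagged LRRK2 and stably expressing CMV-driven firefly luciferase were treated for 24 h at 37° C with an 11-point 1:3 series from a 1 μM final top concentration. Nano-Glo Dual Luciferase read LRRK2-HiBit against firefly signal. Alamar Blue gave viability, and signals were normalized to DMSO median before curve fitting.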
In general terms: The HiBiT peptide binds its large partner to form an active luciferase.

[1] abbreviates: HEK293, Table 2, HiBit-tagged LRRK2 in HEK293 cells, 24 hours treatment.
The mark [2] stands for this setting: HEK293, Table 3, comparison with direct comparators.
Setting [3] is: Table 2, HiBit-tagged LRRK2 in HEK293 cells, 24 hours treatment, starting concentration 1 μM.
Setting [4] is: Table 3, comparison with direct comparators, HiBit-tagged LRRK2 in HEK293 cells, 24 hours treatment.
Setting [5] is: Table 2, HiBit-tagged LRRK2 in HEK293 cells, 24 hours treatment.

By Dmax is commonly meant the largest share of the target that was removed. Higher therefore signals a fuller loss of target. One may read the DC50 as the concentration at which degradation of the target reaches its halfway point. Higher therefore signals a less potent degrader.

Each structure is given as a SMILES string. Where only a bound is given, the exact number is not on record here.

T1 sequence (Q5S007 whole entry): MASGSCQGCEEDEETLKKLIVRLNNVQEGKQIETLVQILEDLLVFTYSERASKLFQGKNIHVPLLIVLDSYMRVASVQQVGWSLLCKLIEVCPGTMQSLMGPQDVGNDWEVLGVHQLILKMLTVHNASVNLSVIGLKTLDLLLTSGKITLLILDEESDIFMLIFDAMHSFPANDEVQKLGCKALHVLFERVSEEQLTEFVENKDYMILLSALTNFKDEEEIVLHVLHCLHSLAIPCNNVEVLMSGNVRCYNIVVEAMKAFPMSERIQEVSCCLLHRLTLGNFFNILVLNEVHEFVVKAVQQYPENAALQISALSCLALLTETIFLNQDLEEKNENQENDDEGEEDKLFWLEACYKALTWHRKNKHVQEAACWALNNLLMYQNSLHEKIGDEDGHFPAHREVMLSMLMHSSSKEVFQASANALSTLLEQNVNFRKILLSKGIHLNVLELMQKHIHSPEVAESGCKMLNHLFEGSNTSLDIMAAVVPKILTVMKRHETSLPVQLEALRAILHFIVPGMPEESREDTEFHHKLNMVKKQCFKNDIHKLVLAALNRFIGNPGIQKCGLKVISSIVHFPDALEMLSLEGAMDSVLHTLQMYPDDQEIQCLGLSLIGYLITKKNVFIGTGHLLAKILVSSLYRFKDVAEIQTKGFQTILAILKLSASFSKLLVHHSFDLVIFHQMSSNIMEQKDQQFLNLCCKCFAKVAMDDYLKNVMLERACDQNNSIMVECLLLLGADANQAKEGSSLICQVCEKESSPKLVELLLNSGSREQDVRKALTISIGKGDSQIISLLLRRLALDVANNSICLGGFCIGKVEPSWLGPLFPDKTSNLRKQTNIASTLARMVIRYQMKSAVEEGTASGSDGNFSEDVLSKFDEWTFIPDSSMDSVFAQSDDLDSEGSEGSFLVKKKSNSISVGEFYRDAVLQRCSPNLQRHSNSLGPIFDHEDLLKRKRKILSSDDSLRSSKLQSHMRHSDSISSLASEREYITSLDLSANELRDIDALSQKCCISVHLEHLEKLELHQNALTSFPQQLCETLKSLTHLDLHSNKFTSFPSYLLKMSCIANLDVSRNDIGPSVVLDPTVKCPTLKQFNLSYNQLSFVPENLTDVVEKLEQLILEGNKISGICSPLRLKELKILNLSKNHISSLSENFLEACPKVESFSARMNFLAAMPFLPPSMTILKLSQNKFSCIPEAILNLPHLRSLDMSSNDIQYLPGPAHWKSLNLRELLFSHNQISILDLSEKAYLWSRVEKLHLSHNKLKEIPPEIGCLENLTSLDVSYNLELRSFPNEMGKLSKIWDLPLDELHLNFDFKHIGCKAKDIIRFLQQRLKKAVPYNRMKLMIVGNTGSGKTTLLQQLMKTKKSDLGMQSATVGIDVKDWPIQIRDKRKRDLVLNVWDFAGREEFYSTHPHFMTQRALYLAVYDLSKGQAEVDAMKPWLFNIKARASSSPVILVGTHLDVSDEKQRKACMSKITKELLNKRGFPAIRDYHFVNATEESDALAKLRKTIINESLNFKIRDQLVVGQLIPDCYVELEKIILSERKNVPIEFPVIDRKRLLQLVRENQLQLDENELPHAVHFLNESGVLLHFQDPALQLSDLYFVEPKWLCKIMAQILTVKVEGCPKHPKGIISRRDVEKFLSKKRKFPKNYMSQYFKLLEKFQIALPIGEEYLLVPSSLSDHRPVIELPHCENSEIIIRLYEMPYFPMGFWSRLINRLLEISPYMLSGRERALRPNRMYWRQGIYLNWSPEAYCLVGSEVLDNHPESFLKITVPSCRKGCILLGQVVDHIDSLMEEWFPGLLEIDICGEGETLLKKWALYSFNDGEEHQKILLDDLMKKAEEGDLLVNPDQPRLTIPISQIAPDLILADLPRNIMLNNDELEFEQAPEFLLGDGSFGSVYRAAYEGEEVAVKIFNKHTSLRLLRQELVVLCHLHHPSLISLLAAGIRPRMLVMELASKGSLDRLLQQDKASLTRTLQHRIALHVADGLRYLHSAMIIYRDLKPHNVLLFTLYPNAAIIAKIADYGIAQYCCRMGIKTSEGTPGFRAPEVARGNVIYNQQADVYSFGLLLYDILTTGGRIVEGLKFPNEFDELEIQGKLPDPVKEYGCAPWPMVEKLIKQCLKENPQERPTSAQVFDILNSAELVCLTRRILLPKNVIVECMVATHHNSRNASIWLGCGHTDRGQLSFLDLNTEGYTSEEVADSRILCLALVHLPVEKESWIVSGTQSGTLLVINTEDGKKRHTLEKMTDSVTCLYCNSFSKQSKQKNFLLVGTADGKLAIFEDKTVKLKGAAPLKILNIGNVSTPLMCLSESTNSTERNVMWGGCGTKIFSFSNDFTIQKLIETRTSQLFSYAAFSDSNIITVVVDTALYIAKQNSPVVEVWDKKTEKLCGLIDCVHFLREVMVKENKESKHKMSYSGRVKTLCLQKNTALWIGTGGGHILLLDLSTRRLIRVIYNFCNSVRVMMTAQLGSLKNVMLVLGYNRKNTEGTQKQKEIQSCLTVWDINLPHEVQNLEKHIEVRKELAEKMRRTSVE

With `Cn1c(=O)n(C2CCC(=O)NC2=O)c2cccc(N3CCC(O[C@H]4CC[C@H](CN5CCN(c6cc(-c7n[nH]c8ccc(OC9(C)CC9)cc78)ncn6)CC5)CC4)CC3)c21` (stereo partly shown) [Compound 9, 3-[3-methyl-2-oxo-4-(4-{[(1r,4r)-4-[(4-{6-[5-(1-methylcyclopropoxy)-1H-indazol-3-yl]pyrimidin-4-yl}piperazin-1-yl)methyl]cyclohexyl]oxy}piperidin-1-yl)-2,3-dihydro-1H-1,3-benzodiazol-1-yl]piperidine-2,6-dione], the maximal degradation (Dmax) under setting [1] was found to be 66% and the Dmax under setting [2] amounted to 66%. Besides, the DC50 was found to be 1.2 nM under setting [3] and 1.2 nM under setting [4].
As to `CC1(Oc2ccc3[nH]nc(-c4cc(N5CCC(CN6CCN(CC7CCN(c8ccc9ncn(C%10CCC(=O)NC%10=O)c9c8)CC7)CC6(C)C)CC5)ncn4)c3c2)CC1` (stereo not shown) [Compound 10, 3-{6-[4-({3,3-dimethyl-4-[(1-{6-[5-(1-methylcyclopropoxy)-1H-indazol-3-yl]pyrimidin-4-yl}piperidin-4-yl)methyl]piperazin-1-yl}methyl)piperidin-1-yl]-1H-1,3-benzodiazol-1-yl}piperidine-2,6-dione], under setting [1], the Dmax came to 69%. The compound further yielded a 50% degradation concentration (DC50) under setting [3] of 4.5 nM.
Consider `CC1(Oc2ccc3[nH]nc(-c4cc(N5CCC(CN6CCN(CC7CCN(c8ccc9c(c8)ncn9C8CCC(=O)NC8=O)CC7)CC6)CC5)ncn4)c3c2)CC1` (stereo not shown) [Compound 11, 3-{5-[4-({4-[(1-{6-[5-(1-methylcyclopropoxy)-1H-indazol-3-yl]pyrimidin-4-yl}piperidin-4-yl)methyl]piperazin-1-yl}methyl)piperidin-1-yl]-1H-1,3-benzodiazol-1-yl}piperidine-2,6-dione], for which the maximal degradation (Dmax) by setting is: under setting [1], 62%; under setting [2], 62%. The compound also gave a 50% degradation concentration (DC50) under setting [3] of 1.6 nM and a DC50 under setting [4] of 1.6 nM.
In the case of `Cn1c(=O)n(C2CCC(=O)NC2=O)c2ccc(N3CCC(CN4CCN(CC5CCN(c6cc(-c7n[nH]c8ccc(OC9(C)CC9)cc78)ncn6)CC5)CC4)CC3)cc21` (stereo not shown) [Compound 12, 3-{3-methyl-5-[4-({4-[(1-{6-[5-(1-methylcyclopropoxy)-1H-indazol-3-yl]pyrimidin-4-yl}piperidin-4-yl)methyl]piperazin-1-yl}methyl)piperidin-1-yl]-2-oxo-2,3-dihydro-1H-1,3-benzodiazol-1-yl}piperidine-2,6-dione], the Dmax reads like this: under setting [1], 64%; under setting [2], 64%. For the same compound, the DC50 runs as follows: under setting [3], 0.17 nM; under setting [4], 0.17 nM.
Take `CC1(Oc2ccc3[nH]nc(-c4cc(N5CCC(CN6CCN(CC7CCN(c8ccc9c(c8)ncn9C8CCC(=O)NC8=O)CC7)CC6(C)C)CC5)ncn4)c3c2)CC1` (stereo not shown) [Compound 13, 3-{5-[4-({3,3-dimethyl-4-[(1-{6-[5-(1-methylcyclopropoxy)-1H-indazol-3-yl]pyrimidin-4-yl}piperidin-4-yl)methyl]piperazin-1-yl}methyl)piperidin-1-yl]-1H-1,3-benzodiazol-1-yl}piperidine-2,6-dione]: the Dmax reads like this: under setting [1], 64%; under setting [2], 64%. Also, the 50% degradation concentration (DC50) is, setting by setting: under setting [3], 1 nM; under setting [4], 1 nM.
Take `Cn1c(=O)n(C2CCC(=O)NC2=O)c2ccc(N3CCC(CN4CCN(CC5CCN(c6cc(-c7n[nH]c8ccc(OC9(C)CC9)cc78)ncn6)CC5)C(C)(C)C4)CC3)cc21` (stereo not shown) [Compound 14, 3-{5-[4-({3,3-dimethyl-4-[(1-{6-[5-(1-methylcyclopropoxy)-1H-indazol-3-yl]pyrimidin-4-yl}piperidin-4-yl)methyl]piperazin-1-yl}methyl)piperidin-1-yl]-3-methyl-2-oxo-2,3-dihydro-1H-1,3-benzodiazol-1-yl}piperidine-2,6-dione]: the Dmax reads like this: under setting [1], 58%; under setting [2], 58%. Besides, the DC50 reads like this: under setting [3], 0.22 nM; under setting [4], 0.22 nM.
For `Cn1c(=O)n(C2CCC(=O)NC2=O)c2cccc(N3CCC(CN4CCN(CC5CCN(c6cc(-c7n[nH]c8ccc(OC9(C)CC9)cc78)ncn6)CC5)CC4)CC3)c21` (stereo not shown) [Compound 15, 3-{3-methyl-4-[4-({4-[(1-{6-[5-(1-methylcyclopropoxy)-1H-indazol-3-yl]pyrimidin-4-yl}piperidin-4-yl)methyl]piperazin-1-yl}methyl)piperidin-1-yl]-2-oxo-2,3-dihydro-1H-1,3-benzodiazol-1-yl}piperidine-2,6-dione], the Dmax runs as follows: under setting [1], 59%; under setting [2], 59%. Moreover, the 50% degradation concentration (DC50) amounted to 1.5 nM under setting [3] and 1.5 nM under setting [4].
`Cn1c(=O)n(C2CCC(=O)NC2=O)c2cc(N3CCC(CN4CCN(CC5CCN(c6cc(-c7n[nH]c8ccc(OC9(C)CC9)cc78)ncn6)CC5)CC4)CC3)ccc21` (stereo not shown) [Compound 16, 3-{3-methyl-6-[4-({4-[(1-{6-[5-(1-methylcyclopropoxy)-1H-indazol-3-yl]pyrimidin-4-yl}piperidin-4-yl)methyl]piperazin-1-yl}methyl)piperidin-1-yl]-2-oxo-2,3-dihydro-1H-1,3-benzodiazol-1-yl}piperidine-2,6-dione] yielded a 50% degradation concentration (DC50) under setting [3] of at least 1000 nM.
Still for that read-out and setting: in the case of `Cn1c(=O)n(C2CCC(=O)NC2=O)c2cc(N3CCC(CN4CCN(CC5CCN(c6cc(-c7n[nH]c8ccc(OC9(C)CC9)cc78)ncn6)CC5)C(C)(C)C4)CC3)ccc21` (stereo not shown) [Compound 17, 3-{6-[4-({3,3-dimethyl-4-[(1-{6-[5-(1-methylcyclopropoxy)-1H-indazol-3-yl]pyrimidin-4-yl}piperidin-4-yl)methyl]piperazin-1-yl}methyl)piperidin-1-yl]-3-methyl-2-oxo-2,3-dihydro-1H-1,3-benzodiazol-1-yl}piperidine-2,6-dione] it was at least 1000 nM.
In turn, `Cn1c(=O)n(C2CCC(=O)NC2=O)c2cccc(C#CCOC3CCN(CC4CCN(c5cc(-c6n[nH]c7ccc(OC8(C)CC8)cc67)ncn5)CC4)CC3)c21` (stereo not shown) [Compound 18, 3-{3-methyl-4-[3-({1-[(1-{6-[5-(1-methylcyclopropoxy)-1H-indazol-3-yl]pyrimidin-4-yl}piperidin-4-yl)methyl]piperidin-4-yl}oxy)prop-1-yn-1-yl]-2-oxo-2,3-dihydro-1H-1,3-benzodiazol-1-yl}piperidine-2,6-dione] yielded a Dmax under setting [1] of 74%. The same compound had a DC50 under setting [3] of 3.9 nM.
Under setting [3], `Cn1c(=O)n(C2CCC(=O)NC2=O)c2ccc(N3CCC(OC4CCC(OC5CCN(c6cc(-c7n[nH]c8cnc(OC9(C)CC9)cc78)ncn6)CC5)CC4)CC3)cc21` (stereo not drawn) [Compound 25, rel-3-[3-methyl-2-oxo-5-(4-{[(1r,4r)-4-[(1-{6-[5-(1-methylcyclopropoxy)-1H-pyrazolo[3,4-c]pyridin-3-yl]pyrimidin-4-yl}piperidin-4-yl)oxy]cyclohexyl]oxy}piperidin-1-yl)-2,3-dihydro-1H-1,3-benzodiazol-1-yl]piperidine-2,6-dione] had a half-maximal degradation concentration (DC50) of 0.32 nM. For the same compound, under setting [5], the “WT LRRK2 **Dmax (%)” value turned out to be 48%.
For `CC(C)n1c(=O)n(C2CCC(=O)NC2=O)c2ccc(N3CCC(OC4CCC(OC5CCN(c6cc(-c7n[nH]c8cnc(OC9(C)CC9)cc78)ncn6)CC5)CC4)CC3)cc21` (stereo not drawn) [Compound 26, rel-3-[2-oxo-3-(propan-2-yl)-5-(4-{[(1r,4r)-4-[(1-{6-[5-(1-methylcyclopropoxy)-1H-pyrazolo[3,4-c]pyridin-3-yl]pyrimidin-4-yl}piperidin-4-yl)oxy]cyclohexyl]oxy}piperidin-1-yl)-2,3-dihydro-1H-1,3-benzodiazol-1-yl]piperidine-2,6-dione], in that order: 1.1 nM and 69%.
